Laboratory results as given in patent US20030176508A1, “Ferulic acid ethyl-guaiacol or vinyl-guaiacol as preservative combination in cosmetic compositions” (priority 2000, published 2003).

What was measured:
Format in all cases: cell-based
Bacteria Pool [1] = experiment: Challenge test of shampoo with bacteria pool; set-up: key: 1: 0 (No Growth); 2: 1-4; 3: 5-10; 4: 11-25; 26-50; 6: 51-100; 7: 101-200; 8: 201-300; 9: (TNTC) too numerous to count; 10: (TNTC) solid m; settings: 1000 ppm of each compound; for Bacterial Growth Rating 1 wk: streaked 1 week after inoculation; for Bacterial Growth Rating 2 wk: streaked 2 weeks after inoculation; for Bacterial Growth Rating 3 wk: streaked 3 weeks after inoculation; for Bacterial Growth Rating 1 day: streaked 1 day after inoculation; for Bacterial Growth Rating 2 day: streaked 2 days after inoculation
Method: (§1) The samples were tested by the challenge test described below. In this challenge test, samples were stored at room temperatures, inoculated at zero days and streaked at 0 days, 1 day, 2 days, 1 week, 2 weeks and 3 weeks. […] Twenty-five grams of sample are weighed out in one-ounce glass jars. […] Biocide was dissolved into solution before use and different concentrations are prepared by adding the appropriate amount of the biocide solution to the samples. […] A negative control is included using a sample without any biocide. 4. The bacteria pool inoculum is made fresh on the day of inoculation by using equal volumes of the 24 hour cultures of the ATCC bacteria grown individually in nutrient broth at 30° C. […] 5. Before inoculation, samples are streaked on TSA (tryptic soy agar) plates with sterile cotton swabs. The plates are incubated at 30° C. for 48 hours and then read using a bacterial colony counter and rated for microbial growth according to the Growth Rating Chart. […] Samples are inoculated with 0.05 mL (for 25 g samples) of the […]. […] Immediately after inoculation, samples are streaked with sterile cotton swabs on TSA plates. The plates are then incubated at 30° C. for 48 hours. The samples are incubated at room temperature. 8. Samples are streaked again at 1 day, 2 days, 1 week, 2 weeks and 3 weeks. […] All plates are incubated 48 hours at 30° C. then read and rated according to the Growth Rating Chart. […] Samples are kept at room temperature.

[2] = test system: Saccharomyces cerevisiae #4105; experiment: Challenge test of hand lotion with A. niger and S. cerevisiae (S. cerevisiae rating); settings: 1000 ppm of each compound, S. cerevisiae (second figure of cell); for Bacterial Growth Rating 1 wk: 1 week; for Bacterial Growth Rating 2 wk: 2 weeks; for Bacterial Growth Rating 3 wk: 3 weeks; for Bacterial Growth Rating 2 day: 2 days
Method: (§2) The samples were tested by the challenge test described below. In this challenge test, samples were stored at room temperatures, inoculated at zero days and streaked at 0 days, 1 day, 2 days, 1 week, 2 weeks and 3 weeks. […] Twenty-five grams of sample are weighed out in one-ounce glass jars. […] Biocide is dissolved into solution before use and different concentrations are prepared by adding the appropriate amount of the biocide solution to the samples. […] A negative control is included using a sample without any biocide. […] Before inoculation, samples are streaked on MYA (malt yeast agar) plates with sterile cotton swabs. The plates are incubated at 30° C. for 48 hours and then read using a bacterial colony counter and rated for microbial growth according to the Growth Rating Chart. […] 5. The inoculum is prepared by adding 9.9 mL sterile 0.85% saline solution to a pure culture slant grown on MYA. A cotton-tipped swab is used to gently rub the surface of the slant to free the cells. […] The yeast and fungus used are: [table] […] Samples are inoculated with 0.05 mL (for 25 g samples) of the An suspension and 0.05 mL of the Sc suspension. 7. Immediately after inoculation, samples are streaked with sterile cotton swabs on MYA plates. The plates are then incubated at 30° C. for 48 hours. The samples are incubated at room temperature. 8. Samples are streaked again at 1 day, 2 days, 1 week, 2 weeks and 3 weeks. 9. All plates are incubated 48 hours at 30° C. then read and rated according to the Growth Rating Chart. Samples are kept at room temperature.

[3] = test system: Aspergillus niger ATCC #16404; experiment: Challenge test of hand lotion with A. niger and S. cerevisiae (A. niger rating); settings: 1000 ppm of each compound, A. niger (first figure of cell); for Bacterial Growth Rating 1 wk: 1 week; for Bacterial Growth Rating 2 wk: 2 weeks; for Bacterial Growth Rating 3 wk: 3 weeks; for Bacterial Growth Rating 2 day: 2 days
Method: as §2

Bacteria Pool [4] = experiment: Challenge test of hand lotion with bacteria pool; set-up: key to Bacterial Growth Rating 1 day / Bacterial Growth Rating 1 wk / Bacterial Growth Rating 3 wk: 1: 0 (No Growth); 2: 1-4; 3: 5-10; 4: 11-25; 26-50; 6: 51-100; 7: 101-200; 8: 201-300; 9: (TNTC) too numerous to count; 10: (TNTC) solid m; settings: 1000 ppm of each compound; for Bacterial Growth Rating 1 wk: streaked 1 week after inoculation; for Bacterial Growth Rating 2 wk: streaked 2 weeks after inoculation; for Bacterial Growth Rating 3 wk: streaked 3 weeks after inoculation; for Bacterial Growth Rating 1 day: streaked 1 day after inoculation; for Bacterial Growth Rating 2 day: streaked 2 days after inoculation
Method: as §1

| Structure (SMILES) | Bacterial Growth Rating 1 wk (Bacteria Pool [1]) | Bacterial Growth Rating 2 wk (Bacteria Pool [1]) | Bacterial Growth Rating 3 wk (Bacteria Pool [1]) | Bacterial Growth Rating 1 day (Bacteria Pool [1]) | Bacterial Growth Rating 2 day (Bacteria Pool [1]) | Bacterial Growth Rating 1 wk [2] | Bacterial Growth Rating 2 wk [2] | Bacterial Growth Rating 3 wk [2] | Bacterial Growth Rating 1 day [2] | Bacterial Growth Rating 2 day [2] | Bacterial Growth Rating 1 wk [3] | Bacterial Growth Rating 2 wk [3] | Bacterial Growth Rating 3 wk [3] | Bacterial Growth Rating 1 day [3] | Bacterial Growth Rating 2 day [3] | Bacterial Growth Rating 1 wk (Bacteria Pool [4]) | Bacterial Growth Rating 2 wk (Bacteria Pool [4]) | Bacterial Growth Rating 3 wk (Bacteria Pool [4]) | Bacterial Growth Rating 1 day (Bacteria Pool [4]) | Bacterial Growth Rating 2 day (Bacteria Pool [4]) |
| --- | --- | --- | --- | --- | --- | --- | --- | --- | --- | --- | --- | --- | --- | --- | --- | --- | --- | --- | --- | --- |
| C=Cc1ccc(O)c(OC)c1 [vinylguaiacol, 4-hydroxy-3-methoxystyrene] | 8 (201-300) | 9 | 9 | 9 | 9 | 2 (1-4) | 1 (0 (No Growth)) | 1 (0 (No Growth)) | 2 (1-4) | 3 (5-10) | 1 (0 (No Growth)) | 1 (0 (No Growth)) | 1 (0 (No Growth)) | 3 (5-10) | 1 (0 (No Growth)) | 4 (11-25) | 3 (5-10) | 1 (0 (No Growth)) | 4 (11-25) | 3 (5-10) |
| CCc1ccc(O)c(OC)c1 [ethylguaiacol, 4-ethyl-2-methoxyphenol] | 9 | 9 | 9 | 9 | 9 | 4 (11-25) | 2/2 (1-4) | 3/3 (5-10) | 4/4 (11-25) | 4 (11-25) | 3 (5-10) | 2/2 (1-4) | 3/3 (5-10) | 4/4 (11-25) | 3 (5-10) | 5 (26-50) | 4 (11-25) | 1 (0 (No Growth)) | 9 | 6 (51-100) |
| COc1cc(C=CC(=O)O)ccc1O [ferulic acid, 4-hydroxy-3-methoxycinnamic acid] | 9 | 9 | 9 | 9 | 9 | 3/3 (5-10) | 3 (5-10) | 4 (11-25) | 6 (51-100) | 6 (51-100) | 3/3 (5-10) | 4 (11-25) | 3 (5-10) | 4 (11-25) | 4 (11-25) | 9 | 6 (51-100) | 9 | 7 (101-200) | 6 (51-100) |
